Experiments:
HDAC2 = HDAC2 (Homo sapiens, UniProt Q92769); experiment: HDAC2 inhibition IC50; format: biochemical
HDAC3 = HDAC3 (Homo sapiens, UniProt O15379); experiment: HDAC3 inhibition IC50; format: biochemical
HDAC1 = HDAC1 (Homo sapiens, UniProt Q13547); experiment: HDAC1 inhibition IC50; format: biochemical
[1] = tested on: isolated adult rat cardiac myocytes; experiment: Seahorse oxygen consumption rate (OCR) in myocytes, normoxia or simulated hypoxia-reoxygenation; format: cell-based
Description: (§1) FCCP was injected at point A and […] injected at point B. (B) Measurements of OCR in isolated myocytes subjected to normoxia (blue) or chemical hypoxia. reoxygenation (red) and reperfused with DMSO (red), MS-275 (pink), or LL-66 (peach). For (A) and (B), top panels are representative, bottom panels are the uncoupled rate as a percentage of baseline rate over 4 runs. (C) Oxyblotting of tissue homogenates from Langendorff hearts subjected to I/R+/−LL-66 or MS-275. Representative seahorse data are represented mean +/−SEM, Bar graphs are represented mean +/−S.D. For all experiments, N-4, one way ANOVA with Dunnet post test *p<0.05, **p<0.01.
(§2) Since acetylation is known to regulate the activity of mitochondrial enzymes involved in multiple metabolic pathways, the inventors decided to determine if class I HDAC inhibition affects metabolic activity in cardiac myocytes both at baseline and when subjected to simulated hypoxia-reoxygenation (sI/R). For these experiments, isolated adult rat cardiac myocytes were subjected to chemical hypoxia or normoxia control for 90 minutes, then reperfused in the presence of DMSO vehicle, MS-275, or LL-66 for 60 minutes. At the conclusion of the reperfusion period, myocytes were loaded into a Seahorse extracellular flux analyzer and the oxygen consumption rate (OCR) was analyzed at baseline and in response to FCCP (injection A) and […] (injection B).

[2] = tested on: hearts from Sprague-Dawley rats; experiment: Langendorff isolated heart ischemia-reperfusion model, drug at reperfusion (ex vivo); settings: drug during reperfusion; for left ventricular function (dP/dtmax, dP/dtmin, developed pressure, rate pressure product): 30 min ischemia, 60 min reperfusion, vs drug-free control; for infarct area / viable myocardium (TTC staining): end of 60 min reperfusion
Description: (B) Graphs represent measurements of left ventricular function after 30 minutes of ischemia and 60 minutes of reperfusion. dP/dtmax indicates the rate of pressure development, dP/dtmin indicates the rate of pressure relaxation, Developed Pressure was calculated as the difference between the systolic and diastolic pressures, Rate Pressure Product was calculated as the developed pressure multiplied by the heart rate. Measurements were taken at the end of reperfusion. (C) TTC staining for infarct area at the end of reperfusion; yellow/white region indicates area of infarction. Infarct areas were measured using imageJ software. All data are represented as mean+/−S.D. N=4, t-test *p,0.05.
FIG. 3 provides data showing (A) Confocal fluorescent images of myocytes loaded with LL-66 and Mitotracker Deep Red FM. (B) LV functional measurements taken at the end of 30 minutes ischemia and 60 minutes of reperfusion, represented as a percentage of baseline pre-ischemia function. dP/dtmax indicates the rate of pressure development, dP/dtmin indicates the rate of pressure relaxation, Developed Pressure was calculated as the difference between the systolic and diastolic pressures, Rate Pressure Product was calculated as the developed pressure multiplied by the heart rate. Measurements were taken at the end of reperfusion. (C) TTC staining for infarct at the end of reperfusion; yellow/white region indicates area of infarction. Infarct areas were measured using image) software. (D) Area of Infarction for each of the groups in (C). N=3 for (A), For B-D, All data are represented as mean+/−S.D. N=4 t-test for panel B, one way ANOVA with bonferroni post-test for panel D *p<0.05.
To test whether selective class I HDAC inhibition can postcondition the heart against […], the inventors isolated hearts from Sprague-Dawley rats and perfused them using a constant pressure Langendorff apparatus. After 15 minutes of equilibration, the inventors subjected the hearts to 30 minutes of ischemia, followed by 60 minutes of reperfusion. The selective class I HDAC inhibitor MS-275 was administered throughout the reperfusion phase and compared to drug-free control hearts (FIG. 1A). In order to measure left ventricular functional performance, a saline-filled balloon was inserted into the left ventricle and attached to a pressure transducer. […] At the conclusion of the 60 minute reperfusion period, hearts were removed from the perfusion column and sliced into 2 mm transverse sections using a tissue slicing matrix. Hearts were then incubated in 2,3,5-triphenyltetrazolium chloride ([…]) in order to determine the amount of infarcted myocardium. […]

succinate dehydrogenase = experiment: SDH activity in tissue lysates from reperfused Langendorff hearts; parameters: species or system rat; settings: Langendorff hearts treated at reperfusion
Description: (§3) N=3 per group. (B) Treatment of Langendorff hearts with HDAC inhibitors reduce succinate dehydrogenase activity. SDH activity was measured in tissue lysates from reperfused hearts treated with either MS275 or LL-66 at reperfusion. N=4 per group. (C) SDHA activity was measured in mitochondria isolated from HEK2.93 cells expressing WT, K480Q or K480R mutants. N=4
(§4) Therefore, since inhibition of the mitochondrial HDAC1 represses SDH activity and. K538 is hyperacetylated in IR when HDAC1 is inhibited, the inventors first proposed to test whether K538 acetylation represses SDH activity. The inventors have made and expressed the mouse WT, K538Q and K538R point mutants of SDHA in HEK293 cells to determine if acetylation of K538 also represses SDH activity. Contrary to what the inventors had hoped the K538Q and K538R SDHA mutants had no difference in SDHA activity from WT SDHA after normalization for expression (data not shown). […] The K480R has WT activity and K.480Q has suppressed SDHA activity (FIG. 5C) when expressed in HEK293 cells.

Langendorff hearts = experiment: Oxyblotting of lysates from Langendorff hearts subjected to I/R; parameters: species or system rat; settings: I/R hearts +/- drug
Description: as §1
as §2, with “For these experiments, isolated adult rat cardiac myocytes were subjected to chemical hypoxia or normoxia control for 90 minutes, then reperfused in the presence of DMSO vehicle, MS-275, or LL-66 for 60 minutes.” left out

SDHA = experiment: Mass spectrometry of protein acetyl-lysine in I/R hearts treated at reperfusion; parameters: species or system rat; settings: for change in SDHA acetylation: I/R hearts, treated at reperfusion, preliminary MS data; for acetylation of SDHA K480: IR with drug treatment
Description: as §3
Samples from I/R hearts treated with LL-66, LL-224, MS-275 and vehicle at reperfusion were prepared for mass spectrometry to detect changes in protein acetyl-lysine. […] The inventors previously proposed to first focus on the lysine corresponding to mouse SDHA K538. […] SDH is unique in that it is the only enzyme that participates both in the Krebs cycle and oxidative phosphorylation in mitochondria. Thirteen acetyl-lysine's have been identified on SDHA but there is no acetylation of SDHB^11*, and SDHA is hyper-acetylated in the Sirt3 knockout mouse. […] HEK293 lowers SDH basal activity^13*, SDH K179 is a target of Sirt3.
as §4

[3] = at baseline (normoxia), FCCP-uncoupled
[4] = following sI/R (90 min chemical hypoxia, 60 min reperfusion with drug)

Sequence of HDAC3 (O15379 whole entry, species assumed): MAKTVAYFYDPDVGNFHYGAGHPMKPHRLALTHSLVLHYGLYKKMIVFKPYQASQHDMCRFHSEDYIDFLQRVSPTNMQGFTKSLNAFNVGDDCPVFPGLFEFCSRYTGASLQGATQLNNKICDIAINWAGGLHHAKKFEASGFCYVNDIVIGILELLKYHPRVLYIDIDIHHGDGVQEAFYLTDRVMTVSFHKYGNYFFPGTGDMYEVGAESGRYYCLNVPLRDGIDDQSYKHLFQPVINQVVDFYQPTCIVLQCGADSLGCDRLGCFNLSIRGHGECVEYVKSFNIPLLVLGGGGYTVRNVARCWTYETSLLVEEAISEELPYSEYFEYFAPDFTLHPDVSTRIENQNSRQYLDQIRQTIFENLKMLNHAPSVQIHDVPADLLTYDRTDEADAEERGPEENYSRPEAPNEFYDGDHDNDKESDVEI
Sequence of HDAC3 (Q9Y618 395-489 partner limits assumed, species assumed): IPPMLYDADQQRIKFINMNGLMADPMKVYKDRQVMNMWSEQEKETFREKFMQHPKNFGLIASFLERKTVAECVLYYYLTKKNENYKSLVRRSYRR
Sequence of HDAC1 (Q13547 whole entry, species assumed): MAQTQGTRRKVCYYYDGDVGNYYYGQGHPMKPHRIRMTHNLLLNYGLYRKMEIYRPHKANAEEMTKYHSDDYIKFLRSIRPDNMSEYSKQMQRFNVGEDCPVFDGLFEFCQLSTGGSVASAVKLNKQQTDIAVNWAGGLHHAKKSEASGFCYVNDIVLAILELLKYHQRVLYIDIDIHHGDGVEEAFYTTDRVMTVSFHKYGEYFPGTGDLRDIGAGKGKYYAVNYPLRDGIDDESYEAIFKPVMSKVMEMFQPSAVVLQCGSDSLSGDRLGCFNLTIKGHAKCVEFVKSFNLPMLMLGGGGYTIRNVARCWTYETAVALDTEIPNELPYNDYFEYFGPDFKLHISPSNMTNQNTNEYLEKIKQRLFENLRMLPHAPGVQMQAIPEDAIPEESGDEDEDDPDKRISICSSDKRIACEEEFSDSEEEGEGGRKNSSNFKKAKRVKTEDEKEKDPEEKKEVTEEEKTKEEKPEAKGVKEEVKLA
Sequence of HDAC2 (Q92769 whole entry, species assumed): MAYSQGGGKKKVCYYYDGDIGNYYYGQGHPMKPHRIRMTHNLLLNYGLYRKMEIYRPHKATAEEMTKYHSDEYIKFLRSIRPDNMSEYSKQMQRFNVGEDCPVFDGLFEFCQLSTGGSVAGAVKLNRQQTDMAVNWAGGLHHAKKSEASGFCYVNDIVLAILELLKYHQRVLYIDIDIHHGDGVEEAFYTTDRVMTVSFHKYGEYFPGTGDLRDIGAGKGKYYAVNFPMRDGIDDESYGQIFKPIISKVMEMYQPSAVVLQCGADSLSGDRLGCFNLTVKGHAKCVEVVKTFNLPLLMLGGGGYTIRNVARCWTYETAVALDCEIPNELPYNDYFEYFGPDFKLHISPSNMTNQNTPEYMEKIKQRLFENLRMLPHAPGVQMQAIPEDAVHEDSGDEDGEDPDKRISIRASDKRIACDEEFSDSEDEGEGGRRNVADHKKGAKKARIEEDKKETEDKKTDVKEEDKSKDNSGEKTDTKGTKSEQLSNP

SMILES | IC50 (HDAC2) [nM] | IC50 (HDAC3) [nM] | IC50 (HDAC1) [nM] | maximal uncoupled OCR [1, 3] | maximal uncoupled OCR [1, 4] | left ventricular function (dP/dtmax, dP/dtmin, developed pressure, rate pressure product) [2] | infarct area / viable myocardium (TTC staining) [2] | SDH activity (succinate dehydrogenase) | oxidative damage (oxyblotting) (Langendorff hearts) | change in SDHA acetylation (SDHA) | change in acetylation of rat SDHA lysine corresponding to mouse K179 (SDHA; IR vs IR+drug) | acetylation of SDHA K480 (SDHA) | acetylation of lysine corresponding to mouse SDHA K538 (SDHA; IR with drug vs IR with vehicle)
N=c1ccc2c(-c3ccccc3C(=O)NCCCCCC(=O)Nc3ccccc3N)c3ccc(N)cc3oc-2c1 [LL38, 2-(6-(2-(6-amino-3-iminio-3H-xanthen-9-yl)benzamido)hexanamido) benzenaminium 2,2,2-trifluoroacetate] | 490 | 180 | 1260 | – | – | – | – | – | – | – | – | – | –
CCCNNC(=O)c1ccc(CNC(=O)CNC(=O)c2ccccc2-c2c3ccc(=N)cc-3oc3cc(N)ccc23)cc1 [LL115, 6-amino-9-(2-((2-oxo-2-((4-(2-propylhydrazine-1-carbonyl)benzyl)amino)ethyl)carbamoyl)phenyl)-3H-xanthen-3-iminium 2,2,2-trifluoroacetate] | 209 | 5 | 41 | – | – | – | – | – | – | – | – | – | –
N=c1ccc2c(-c3ccccc3C(=O)NCCCCCCCC(=O)Nc3ccccc3N)c3ccc(N)cc3oc-2c1 [LL130, 2-(8-(2-(6-amino-3-iminio-3H-xanthen-9-yl)benzamido)octanamido) benzenaminium 2,2,2-trifluoroacetate] | 5170 | 152 | 4730 | – | – | – | – | – | – | – | – | – | –
CCCNNC(=O)CCCCCCNC(=O)c1ccccc1-c1c2ccc(=N)cc-2oc2cc(N)ccc12 [LL142, 6-amino-9-(2-((7-oxo-7-(2-propylhydrazinyl)heptyl)carbamoyl)phenyl)-3H-xanthen-3-iminium 2,2,2-trifluoroacetate] | 460 | 6 | 111 | – | – | – | – | – | – | – | – | – | –
Nc1ccccc1NC(=O)c1ccc(CNC(=O)OCc2cccnc2)cc1 [MS-275, reference compound] | – | – | – | significantly decreased | significantly decreased | significant preservation of multiple parameters of ventricular function | significantly reduced infarct area | significantly reduced | reduction of oxidative damage | significant changes in acetylation | not significant | significantly hyperacetylated | –
N=c1ccc2c(-c3ccccc3C(=O)NCCCCCCC(=O)Nc3ccccc3N)c3ccc(N)cc3oc-2c1 [LL45, 2-(7-(2-(6-amino-3iminio-3H-xanthen-9-yl)benzamido)heptanamido) benzenaminium 2,2,2-trifluoroacetate] | 2460 | 55 | 1950 | – | – | – | – | – | – | – | – | – | –
CCCNNC(=O)c1ccc(CNC(=O)c2ccccc2-c2c3ccc(=N)cc-3oc3cc(N)ccc23)cc1 [LL65, 6-amino-9-(2-((4-(2-propylhydrazine-1-carbonyl)benzyl)carbamoyl)phenyl)-3H-xanthen-3-iminium 2,2,2-trifluoroacetate] | 849 | 36 | 276 | – | – | – | – | – | – | – | – | – | –
N=c1ccc2c(-c3ccccc3C(=O)NCc3ccc(C(=O)Nc4ccccc4N)cc3)c3ccc(N)cc3oc-2c1 [LL66, 2-(4-((2-(6-amino-3-iminio-3H-xanthen-9-yl)benzamido)methyl)benzamido) benzenaminium 2,2,2-trifluoroacetate] | 3480 | 355 | 4020 | significantly decreased | significantly decreased | same magnitude of LV functional recovery from injury as the non-targeted class I HDAC inhibitor MS-275 | rescued viable myocardium to the same extent as MS-275 | significantly reduced | reduction of oxidative damage | significant changes in acetylation | – | significantly hyperacetylated | significantly hyperacetylated
CCCNNC(=O)c1ccc(NC(=O)CNC(=O)c2ccccc2-c2c3ccc(=N)cc-3oc3cc(N)ccc23)cc1 [LL162, 6-amino-9-(2-((2-oxo-2-((4-(2-propylhydrazine-1-carbonyl)phenyl)amino)ethyl)carbamoyl)phenyl)-3H-xanthen-3-iminium 2,2,2-trifluoroacetate] | 468 | 7 | 124 | – | – | – | – | – | – | – | – | – | –
